Drawing on PMC9230623, “Design, Synthesis, In Vitro Biological Activity Evaluation and Stabilized Nanostructured Lipid Carrier Formulation of Newly Synthesized Schiff Bases-Based TMP Moieties” (Pharmaceuticals, 2022), this text covers IC50 and melting point for ten molecules.

The subject of data set [1] is MDA-MB-231 breast cancer cell line. Nature of the data set: Cytotoxic assay against MDA-MB-231 breast cancer cell line. It counts as cell-based. As to conditions: Homo sapiens, MDA-MB-231; mean of three independent replicates ± SE; read-out: IC50 Value (μM) MDA-MB-231. As to the method: The newly prepared Schiff bases 2–5g were screened for their in vitro cytotoxic activity against the MDA-MB-231 breast cancer cell line taking CA-4 as a reference drug. […] In addition, further structure extension to give N-aryl hydrazinyl molecules 4a–5g produced compounds with considerable cytotoxic activity, which may give an indication that the aryl ring is important for cytotoxic activity. […]
Cytotoxic activity of the prepared schiff bases against MDA-MB-231 breast cell Line was determined according previously reported methods. (See Supplementary Materials—Appendix SB).

`COc1cc(/C=C(\NC(=O)c2cc(OC)c(OC)c(OC)c2)C(=O)N/N=C(\C)c2ccc(O)cc2)cc(OC)c1OC` [Compound 5d, N-((Z)-3-((E)-2-(1-(4-Hydroxyphenyl)ethylidene)hydrazinyl)-3-oxo-1-(3,4,5-trimethoxyphenyl)prop-1-en-2-yl)-3,4,5-trimethoxybenzamide] gave a melting point of 258 to 260 °C. Also, the IC50 in data set [1] came to 1.98 ± 0.19 µM.
On to `C/C=N/NC(=O)/C(=C/c1cc(OC)c(OC)c(OC)c1)NC(=O)c1cc(OC)c(OC)c(OC)c1` [Compound 2, N-((Z)-3-((E)-2-Ethylidenehydrazinyl)-3-oxo-1-(3,4,5-trimethoxyphenyl)prop-1-en-2-yl)-3,4,5-trimethoxybenzamide], for which the melting point lay within 224 to 226 °C. Also, the IC50 in data set [1] was 31.6 ± 1.07 µM.
Molecule `COc1cc(/C=C(\NC(=O)c2cc(OC)c(OC)c(OC)c2)C(=O)N/N=C/c2ccco2)cc(OC)c1OC` [Compound 3, N-((Z)-3-((E)-2-(Furan-2-ylmethylene)hydrazinyl)-3-oxo-1-(3,4,5-trimethoxyphenyl)prop-1-en-2-yl)-3,4,5-trimethoxybenzamide] gave a melting point of 212 to 214 °C. For the same molecule, in data set [1], the IC50 came out at 6.08 ± 0.42 µM.
On the same counts, the results for `COc1cc(/C=C(\NC(=O)c2cc(OC)c(OC)c(OC)c2)C(=O)N/N=C(\C)c2ccc(Br)cc2)cc(OC)c1OC` [Compound 5c, N-((Z)-3-((E)-2-(1-(4-Bromophenyl)ethylidene)hydrazinyl)-3-oxo-1-(3,4,5-trimethoxyphenyl)prop-1-en-2-yl)-3,4,5-trimethoxybenzamide] are 244 to 246 °C and 20.7 ± 1.84 µM.
Consider `COc1cc(/C=C(\NC(=O)c2cc(OC)c(OC)c(OC)c2)C(=O)N/N=C/c2ccc(C)cc2)cc(OC)c1OC` [Compound 4f, 3,4,5-Trimethoxy-N-((Z)-3-((E)-2-(4-methylbenzylidene)hydrazinyl)-3-oxo-1-(3,4,5-trimethoxyphenyl)prop-1-en-2-yl)benzamide], for which the melting point fell in the range of 208 to 210 °C. In addition, the IC50 in data set [1] amounted to 4.52 ± 0.36 µM.
In the case of `COc1ccc(/C=N/NC(=O)/C(=C/c2cc(OC)c(OC)c(OC)c2)NC(=O)c2cc(OC)c(OC)c(OC)c2)cc1` [Compound 4g, 3,4,5-Trimethoxy-N-((Z)-3-((E)-2-(4-methoxybenzylidene)hydrazinyl)-3-oxo-1-(3,4,5-trimethoxyphenyl)prop-1-en-2-yl)benzamide], the melting point lay in the range of 217 to 219 °C. For the same molecule, in data set [1], the IC50 is 3.43 ± 0.22 µM.
As to `COc1cc(/C=N/NC(=O)/C(=C/c2cc(OC)c(OC)c(OC)c2)NC(=O)c2cc(OC)c(OC)c(OC)c2)cc(OC)c1` [Compound 4k, N-((Z)-3-((E)-2-(3,5-Dimethoxybenzylidene)hydrazinyl)-3-oxo-1-(3,4,5-trimethoxyphenyl)prop-1-en-2-yl)-3,4,5-trimethoxybenzamide], the melting point was 214 to 216 °C. The IC50 in data set [1] turned out to be 4.8 ± 0.17 µM.
Taken in the same sequence, the figures for `COc1cc(/C=C(\NC(=O)c2cc(OC)c(OC)c(OC)c2)C(=O)N/N=C(\C)c2ccccc2)cc(OC)c1OC` [Compound 5a, 3,4,5-Trimethoxy-N-((Z)-3-oxo-3-((E)-2-(1-phenylethylidene)hydrazinyl)-1-(3,4,5-trimethoxyphenyl)prop-1-en-2-yl)benzamide] were 260 to 262 °C and 20.2 ± 0.89 µM.
On to `COc1cc(/C=C(\NC(=O)c2cc(OC)c(OC)c(OC)c2)C(=O)N/N=C/c2cc(OC)c(OC)c(OC)c2)cc(OC)c1OC` [Compound 4l, 3,4,5-Trimethoxy-N-((Z)-3-oxo-3-((E)-2-(3,4,5-trimethoxybenzylidene)hydrazinyl)-1-(3,4,5-trimethoxyphenyl)prop-1-en-2-yl)benzamide], for which the IC50 in data set [1] is 7.3 ± 0.64 µM.
Still for that read-out and setting: in the case of `COc1cc(/C=C(\NC(=O)c2cc(OC)c(OC)c(OC)c2)C(=O)N/N=C/c2ccc(O)cc2)cc(OC)c1OC` [Compound 4e, N-((Z)-3-((E)-2-(4-Hydroxybenzylidene)hydrazinyl)-3-oxo-1-(3,4,5-trimethoxyphenyl)prop-1-en-2-yl)-3,4,5-trimethoxybenzamide] it was 7.1 ± 1.02 µM.
